Each compound was assayed against T1, human FSH receptor (Homo sapiens, UniProt P23945) (assay: Agonistic activity at the human FSH receptor expressed in CHO cells (CRE-luciferase reporter)). Conditions: CHO cells stably transfected with human FSH receptor and CRE/luciferase reporter; 4 hours incubation; pEC50 is -log EC50; read-out: hFSHRago (CHO luc) pEC50 (converted).
T1 construct: expressed in transfected cells; host or cells: CHO (Chinese Hamster Ovary) cells, stably transfected, cotransfected with CRE-luciferase reporter
T1 sequence (P23945 18-695): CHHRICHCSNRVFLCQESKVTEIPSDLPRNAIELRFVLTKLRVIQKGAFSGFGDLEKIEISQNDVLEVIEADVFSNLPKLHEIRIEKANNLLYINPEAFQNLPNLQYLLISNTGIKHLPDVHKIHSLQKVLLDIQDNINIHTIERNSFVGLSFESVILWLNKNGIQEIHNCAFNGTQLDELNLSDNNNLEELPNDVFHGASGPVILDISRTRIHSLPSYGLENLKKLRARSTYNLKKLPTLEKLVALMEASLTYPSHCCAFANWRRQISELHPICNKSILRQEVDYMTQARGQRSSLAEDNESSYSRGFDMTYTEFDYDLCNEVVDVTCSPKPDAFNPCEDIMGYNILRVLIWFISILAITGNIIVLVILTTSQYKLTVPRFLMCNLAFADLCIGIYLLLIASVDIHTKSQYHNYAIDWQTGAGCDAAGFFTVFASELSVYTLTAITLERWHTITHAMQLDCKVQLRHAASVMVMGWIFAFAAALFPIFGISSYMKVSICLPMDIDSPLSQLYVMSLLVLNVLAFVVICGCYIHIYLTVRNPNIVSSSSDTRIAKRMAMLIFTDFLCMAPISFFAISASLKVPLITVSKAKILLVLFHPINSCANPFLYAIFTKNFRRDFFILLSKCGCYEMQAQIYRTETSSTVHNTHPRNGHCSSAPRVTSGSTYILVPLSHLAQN
Format: cell-based
From the text: The term EC50 means the concentration of the test compound that elicits half-maximal (50%) stimulation compared to the compound's maximally attainable effect. pEC50 is the negative log of EC50. The values can be determined e.g. in a cell line transfected with a FSH receptor gene and cotransfected with a cAMP responsive element/promoter directing the expression of a reporter gene. For the determination a software program such as MathIQ (version 2.0, ID Business Solutions Limited) can be used.
Agonistic activity of the compounds at the human FSH receptor was determined in Chinese Hamster Ovary (CHO) cells stably transfected with the human FSH receptor and cotransfected with a cAMP responsive element (CRE)/promotor directing the expression of a firefly luciferase reporter gene. Binding of the compounds to the Gs protein-coupled FSH receptor will result in an increase of cAMP, which in turn will induce an increased transactivation of the luciferase reporter. Cells (7,500 cells/well of a 384 well plate) were incubated in Dulbecco' minimal essential F12 modified medium (Invitrogen), supplemented with 1 μg/ml bovine insulin, 5 μg/ml human apo-transferrin, 80 U/ml penicillin G and 80 μg/ml streptomycin with the test compounds (concentration between 0.0316 nM and 10.0 μM) in duplicate in a humidified atmosphere (95%) at 5-7% CO2 and 37° C. The final concentration of DMSO was 1%. After 4 hours of incubation, plates were allowed to adjust to room temperature for 1 hour. Then, Luclite (PerkinElmer) solution was added to the wells and cells were allowed to lyse for at least 1 hour at room temperature. Subsequently, luciferase activity was measured in a luminescence counter. The signal is expressed as counts per second (cps). The EC50 (concentration of the test compound that elicits half-maximal (50%) luciferase stimulation compared to the compound's maximally attainable effect) and efficacy values (maximal effect of the test compound as percentage of the maximal effect of recombinant human FSH) of the compounds were determined using the software program MathIQ (version 2.0, ID Business Solutions Limited). pEC50 data (pEC50 is −log EC50) are indicated at the synthesis examples.

SMILES	EC50
COc1cc2c(cc1-n1cc(C[C@H](O)CO)nn1)-c1c(-c3cccs3)c3c(n1CC2)C(=O)N(C(C)(C)C)CCCC3 [Compound 20f, (S)-9-tert-butyl-14-(thien-2-yl)-2-(4-(2,3-dihydroxypropyl)-1H-1,2,3-triazol-1-yl)-3-methoxy-5,6,10,11,12,13-hexahydroazocino[4′,3′:4,5]pyrrolo[2,1-a]isoquinolin-8(9H)-one]	4.07 nM
COc1cc2c(cc1-n1cc(C[C@@H](O)CO)nn1)-c1c(-c3cccs3)c3c(n1CC2)C(=O)N(C(C)(C)C)CCCC3 [Compound 20g, (R)-9-tert-butyl-14-(thien-2-yl)-2-(4-(2,3-dihydroxypropyl)-1H-1,2,3-triazol-1-yl)-3-methoxy-5,6,10,11,12,13-hexahydroazocino[4′,3′:4,5]pyrrolo[2,1-a]isoquinolin-8(9H)-one]	3.24 nM
COc1cc2c(cc1NC(=O)CN1CC(O)C1)-c1c(-c3cccs3)c3c(n1CC2)C(=O)N(C(C)(C)C)CCCC3 [Compound 22c, 2-(3-hydroxyazetidin-1-yl)-N-(9-tert-butyl-14-(thien-2-yl)-3-methoxy-5,6,10,11,12,13-hexahydroazocino[4′,3′:4,5]pyrrolo[2,1-a]isoquinolin-8(9H)-on-2-yl)acetamide]	1.26 nM
CCN1CCN(CC(=O)Nc2cc3c(cc2OC)CCn2c4c(c(-c5cccs5)c2-3)CCCCN(C(C)(C)C)C4=O)CC1 [Compound 22d, 2-(4-ethylpiperazin-1-yl)-N-(9-tert-butyl-14-(thien-2-yl)-3-methoxy-5,6,10,11,12,13-hexahydroazocino[4′,3′:4,5]pyrrolo[2,1-a]isoquinolin-8(9H)-on-2-yl)acetamide]	3.31 nM
CC[S+]([O-])c1cc2c(cc1OC)CCn1c3c(c(Br)c1-2)CCCCN(C(C)(C)C)C3=O (centres unmarked) [Compound 23d, 9-tert-butyl-14-bromo-2-ethylsulfinyl-3-methoxy-5,6,10,11,12,13-hexahydroazocino[4′,3′:4,5]pyrrolo[2,1-a]isoquinolin-8(9H)-one]	245 nM
COc1cc2c(cc1-c1cccnc1)-c1c(-c3cccs3)c3c(n1CC2)C(=O)N(C(C)(C)C)CCC(C)(C)C3 [Compound 24k, 9-tert-butyl-12,12-dimethyl-3-methoxy-2-pyridin-3-yl-14-(2-thienyl)-5,6,10,11,12,13-hexahydroazocino[4′,3′:4,5]pyrrolo[2,1-a]isoquinolin-8(9H)-one]	389 nM
COc1cc2c(cc1-c1cccnc1)-c1c(C3=CCOCC3)c3c(n1CC2)C(=O)N(C(C)(C)C)CCCC3 [Compound 25c, 9-tert-butyl-2-(3-pyridyl)-14-(3,6-dihydro-2H-pyran-4-yl)-3-methoxy-5,6,10,11,12,13-hexahydroazocino[4′,3′:4,5]pyrrolo[2,1-a]isoquinolin-8(9H)-one]	6.31 nM
COc1cc2c(cc1-c1cccnc1)-c1c(C3=CCSCC3)c3c(n1CC2)C(=O)N(C(C)(C)C)CCCC3 [Compound 25d, 9-tert-butyl-2-(3-pyridyl)-14-(3,6-dihydro-2H-thiopyran-4-yl)-3-methoxy-5,6,10,11,12,13-hexahydroazocino[4′,3′:4,5]pyrrolo[2,1-a]isoquinolin-8(9H)-one]	10.7 nM
COc1cc2c(cc1C(=O)NCCN1CCOCC1)-c1c(-c3cccs3)c3c(n1CC2)C(=O)N(C(C)(C)C)CCCC3 [Compound 26c1, 9-tert-butyl-3-methoxy-N^2-(2-morpholinoethyl)-14-(thiophen-2-yl)-5,6,10,11,12,13-hexahydroazocino[4′,3′:4,5]pyrrolo[2,1-a]isoquinolin-8(9H)-one-2-carboxamide]	1.78 nM
COC(=O)[C@@H]1CCCN1C(=O)c1cc2c(cc1OC)CCn1c3c(c(-c4cccs4)c1-2)CCCCN(C(C)(C)C)C3=O [Compound 26c2, (S)-9-tert-butyl-3-methoxy-14-(thiophen-2-yl)-5,6,10,11,12,13-hexahydroazocino[4′,3′:4,5]pyrrolo[2,1-a]isoquinolin-8(9H)-one-2-carbonyl(1-pyrrolidinyl-2-carboxylate) methyl ester]	37.2 nM

Now from value to compound:

EC50	SMILES
1.78 nM	COc1cc2c(cc1C#N)-c1c(-c3cccs3)c3c(n1CC2)C(=O)N(C(C)(C)C)CCCC3 [Compound 20h, 9-tert-butyl-14-(thien-2-yl)-3-methoxy-5,6,10,11,12,13-hexahydroazocino[4′,3′:4,5]pyrrolo[2,1-a]isoquinolin-8(9H)-one-2-carbonitrile]
5.5 nM	COc1cc2c(cc1[C@H](O)[C@@H](O)CO)-c1c(-c3cccs3)c3c(n1CC2)C(=O)N(C(C)(C)C)CCCC3 [Compound 21h, (1S,2S)-1-(9-tert-butyl-14-(thien-2-yl)-3-methoxy-5,6,10,11,12,13-hexahydroazocino[4′,3′:4,5]pyrrolo[2,1-a]isoquinolin-8(9H)-on-2-yl)propane-1,2,3-triol]
0.251 nM	COc1cc2c(cc1CCCO)-c1c(-c3cccs3)c3c(n1CC2)C(=O)N(C(C)(C)C)CCCC3 [Compound 21j, 3-(9-tert-butyl-14-(thien-2-yl)-3-methoxy-5,6,10,11,12,13-hexahydroazocino[4′,3′:4,5]pyrrolo[2,1-a]isoquinolin-8(9H)-on-2-yl)propan-1-ol]
4.68 nM	COc1cc2c(cc1NC(=O)CN(C)C)-c1c(-c3cccs3)c3c(n1CC2)C(=O)N(C(C)(C)C)CCCC3 [Compound 22b, 2-dimethylamino-N-(9-tert-butyl-14-(thien-2-yl)-3-methoxy-5,6,10,11,12,13-hexahydroazocino[4′,3′:4,5]pyrrolo[2,1-a]isoquinolin-8(9H)-on-2-yl)acetamide]
155 nM	CCS(=O)(=O)c1cc2c(cc1OC)CCn1c3c(c(Br)c1-2)CCCCN(C(C)(C)C)C3=O [Compound 23e, 9-tert-butyl-14-bromo-2-ethylsulfonyl-3-methoxy-5,6,10,11,12,13-hexahydroazocino[4′,3′:4,5]pyrrolo[2,1-a]isoquinolin-8(9H)-one]
1.82 nM	CCS(=O)(=O)c1cc2c(cc1OC)CCn1c3c(c(-c4cccs4)c1-2)CCCCN(C(C)(C)C)C3=O [Compound 23f, 9-tert-butyl-14-(thien-2-yl)-2-ethylsulfonyl-3-methoxy-5,6,10,11,12,13-hexahydroazocino[4′,3′:4,5]pyrrolo[2,1-a]isoquinolin-8(9H)-one]
10.7 nM	CCS(=O)(=O)c1cc2c(cc1OC)CCn1c3c(c(-c4cncs4)c1-2)CCCCN(C(C)(C)C)C3=O [Compound 23g, 9-tert-butyl-14-(thiazol-5-yl)-2-ethylsulfonyl-3-methoxy-5,6,10,11,12,13-hexahydroazocino[4′,3′:4,5]pyrrolo[2,1-a]isoquinolin-8(9H)-one]
1 nM	COC(=O)c1cc2c(cc1OC)CCn1c3c(c(-c4cccs4)c1-2)CCCCN(C(C)(C)C)C3=O [Compound 26a, methyl 9-tert-butyl-3-methoxy-14-(thiophen-2-yl)-5,6,10,11,12,13-hexahydroazocino[4′,3′:4,5]pyrrolo[2,1-a]isoquinolin-8(9H)-one-2-carboxylate]
44.7 nM	COc1cc2c(cc1C(=O)O)-c1c(-c3cccs3)c3c(n1CC2)C(=O)N(C(C)(C)C)CCCC3 [Compound 26b, 9-tert-butyl-3-methoxy-14-(thiophen-2-yl)-5,6,10,11,12,13-hexahydroazocino[4′,3′:4,5]pyrrolo[2,1-a]isoquinolin-8(9H)-one-2-carboxylic acid]
27.5 nM	COc1cc2c(cc1C(=O)N1CCC[C@H]1CO)-c1c(-c3cccs3)c3c(n1CC2)C(=O)N(C(C)(C)C)CCCC3 [Compound 26c3, (S)-9-tert-butyl-3-methoxy-2-(2-hydroxymethyl-1-pyrrolidinylcarbonyl)-14-(thiophen-2-yl)-5,6,10,11,12,13-hexahydroazocino[4′,3′:4,5]pyrrolo[2,1-a]isoquinolin-8(9H)-one]
